Source: ChEMBL document CHEMBL1909046, “DrugMatrix in vitro pharmacology data”

Columns and labels:
Melanocortin receptor 4 = Melanocortin receptor 4 (Homo sapiens, UniProt P32245); assay type: cell membranes, Membrane; details: hek293; note: in other assays of this panel Not Active means under 50% inhibition at 10 µM
[1] = target: T1, Amine oxidase [flavin-containing] A (Homo sapiens, UniProt P21397); assay: DRUGMATRIX: Monoamine Oxidase MAO-A enzyme inhibition (substrate: Kynuramine); set-up: species or system BTI-TN-5B1-4; details: bti-tn-5b1-4; Not Active = under 50% inhibition at 10 µM
T1 sequence (P21397 whole entry): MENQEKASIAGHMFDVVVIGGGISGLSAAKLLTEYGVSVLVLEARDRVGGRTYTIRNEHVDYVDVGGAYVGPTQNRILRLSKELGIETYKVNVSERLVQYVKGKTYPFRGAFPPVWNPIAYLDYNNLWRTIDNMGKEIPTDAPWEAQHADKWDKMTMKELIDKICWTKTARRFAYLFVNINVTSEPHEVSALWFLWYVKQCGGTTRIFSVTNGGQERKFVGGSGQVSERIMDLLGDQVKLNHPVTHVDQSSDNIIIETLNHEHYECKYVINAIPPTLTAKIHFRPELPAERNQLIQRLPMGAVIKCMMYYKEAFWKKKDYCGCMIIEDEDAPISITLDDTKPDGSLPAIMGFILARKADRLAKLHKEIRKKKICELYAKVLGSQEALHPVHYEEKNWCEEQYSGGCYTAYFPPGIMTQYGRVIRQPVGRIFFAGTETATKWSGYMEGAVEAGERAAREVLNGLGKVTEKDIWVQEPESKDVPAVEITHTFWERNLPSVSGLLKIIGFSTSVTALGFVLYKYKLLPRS

[2] = target: T2, Neuropeptide Y receptor type 1 (Homo sapiens, UniProt P25929); assay type: cell membranes, Membrane; details: sk-n-mc; note: in other assays of this panel Not Active means under 50% inhibition at 10 µM
T2 sequence (P25929 whole entry): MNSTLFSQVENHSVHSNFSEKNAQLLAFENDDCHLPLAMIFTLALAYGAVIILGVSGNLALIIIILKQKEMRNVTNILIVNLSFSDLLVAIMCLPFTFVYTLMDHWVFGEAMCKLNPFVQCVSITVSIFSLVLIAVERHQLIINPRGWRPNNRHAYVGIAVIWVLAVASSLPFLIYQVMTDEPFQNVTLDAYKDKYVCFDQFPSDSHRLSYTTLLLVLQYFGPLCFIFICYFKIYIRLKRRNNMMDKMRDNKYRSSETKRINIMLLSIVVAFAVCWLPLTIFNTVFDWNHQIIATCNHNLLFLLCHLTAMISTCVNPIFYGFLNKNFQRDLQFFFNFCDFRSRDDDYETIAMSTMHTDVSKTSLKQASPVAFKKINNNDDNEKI

[3] = target: T3, Neuropeptide Y receptor type 2 (Homo sapiens, UniProt P49146); assay type: cell membranes, Membrane; details: kan-ts; note: in other assays of this panel Not Active means under 50% inhibition at 10 µM
T3 sequence (P49146 whole entry): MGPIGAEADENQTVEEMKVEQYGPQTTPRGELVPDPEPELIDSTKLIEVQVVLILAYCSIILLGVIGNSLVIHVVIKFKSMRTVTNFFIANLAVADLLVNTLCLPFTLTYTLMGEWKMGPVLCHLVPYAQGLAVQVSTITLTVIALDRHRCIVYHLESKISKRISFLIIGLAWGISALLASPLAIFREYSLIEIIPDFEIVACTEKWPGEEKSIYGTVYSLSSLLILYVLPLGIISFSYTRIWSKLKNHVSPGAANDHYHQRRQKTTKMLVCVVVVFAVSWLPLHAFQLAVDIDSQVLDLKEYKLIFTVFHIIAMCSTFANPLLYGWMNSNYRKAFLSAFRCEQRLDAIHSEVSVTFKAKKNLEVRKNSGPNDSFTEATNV

[4] = target: 5-hydroxytryptamine receptor 1B (Rattus norvegicus, UniProt P28564); assay type: cell membranes, Wistar, Cerebral cortex, Membrane; note: in other assays of this panel Not Active means under 50% inhibition at 10 µM
Cytochrome P450 2C19 = Cytochrome P450 2C19 (Homo sapiens, UniProt P33261); details: bti-tn-5b1-4; note: in other assays of this panel Not Active means under 50% inhibition at 10 µM
Cytochrome P450 2D6 = Cytochrome P450 2D6 (Homo sapiens, UniProt P10635); details: bti-tn-5b1-4; note: in other assays of this panel Not Active means under 50% inhibition at 10 µM
Chain of Cytochrome P450 2D6 (P10635 whole entry): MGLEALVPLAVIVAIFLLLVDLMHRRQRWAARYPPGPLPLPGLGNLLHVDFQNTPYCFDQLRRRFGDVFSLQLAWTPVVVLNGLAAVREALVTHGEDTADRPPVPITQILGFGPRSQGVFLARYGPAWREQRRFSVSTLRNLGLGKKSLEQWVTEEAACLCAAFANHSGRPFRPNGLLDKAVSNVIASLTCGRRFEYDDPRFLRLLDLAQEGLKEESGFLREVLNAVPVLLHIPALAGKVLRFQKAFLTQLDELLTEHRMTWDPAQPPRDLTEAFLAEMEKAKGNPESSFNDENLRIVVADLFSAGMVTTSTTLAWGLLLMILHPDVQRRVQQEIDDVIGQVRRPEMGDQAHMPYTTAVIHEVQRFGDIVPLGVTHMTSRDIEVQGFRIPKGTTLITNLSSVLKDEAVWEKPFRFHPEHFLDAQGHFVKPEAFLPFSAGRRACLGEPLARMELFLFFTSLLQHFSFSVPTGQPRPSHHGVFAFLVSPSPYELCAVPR

Chain of Cytochrome P450 2C19 (P33261 whole entry): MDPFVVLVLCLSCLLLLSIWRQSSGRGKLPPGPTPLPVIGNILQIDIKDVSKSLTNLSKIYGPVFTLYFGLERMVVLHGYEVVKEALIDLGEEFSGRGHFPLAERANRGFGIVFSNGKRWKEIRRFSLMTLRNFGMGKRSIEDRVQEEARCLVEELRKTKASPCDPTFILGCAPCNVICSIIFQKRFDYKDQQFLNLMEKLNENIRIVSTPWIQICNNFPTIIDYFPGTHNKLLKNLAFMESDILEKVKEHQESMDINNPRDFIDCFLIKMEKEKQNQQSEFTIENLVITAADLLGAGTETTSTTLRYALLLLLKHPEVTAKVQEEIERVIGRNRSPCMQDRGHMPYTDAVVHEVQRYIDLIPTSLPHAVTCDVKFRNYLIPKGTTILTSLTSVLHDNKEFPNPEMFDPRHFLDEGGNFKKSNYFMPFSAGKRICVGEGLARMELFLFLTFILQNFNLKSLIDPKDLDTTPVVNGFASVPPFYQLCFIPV
Chain of 5-hydroxytryptamine receptor 1B (P28564 whole entry): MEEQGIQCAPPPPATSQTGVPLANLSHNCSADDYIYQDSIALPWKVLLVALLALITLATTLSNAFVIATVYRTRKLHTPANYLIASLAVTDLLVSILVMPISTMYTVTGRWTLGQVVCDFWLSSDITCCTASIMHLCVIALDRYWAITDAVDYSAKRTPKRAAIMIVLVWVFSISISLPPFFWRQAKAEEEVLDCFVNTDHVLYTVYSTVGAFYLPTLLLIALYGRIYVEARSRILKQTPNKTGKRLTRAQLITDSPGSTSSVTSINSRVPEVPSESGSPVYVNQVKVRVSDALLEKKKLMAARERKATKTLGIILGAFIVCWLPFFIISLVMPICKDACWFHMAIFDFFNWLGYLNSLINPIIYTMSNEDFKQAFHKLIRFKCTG
Chain of Melanocortin receptor 4 (P32245 whole entry): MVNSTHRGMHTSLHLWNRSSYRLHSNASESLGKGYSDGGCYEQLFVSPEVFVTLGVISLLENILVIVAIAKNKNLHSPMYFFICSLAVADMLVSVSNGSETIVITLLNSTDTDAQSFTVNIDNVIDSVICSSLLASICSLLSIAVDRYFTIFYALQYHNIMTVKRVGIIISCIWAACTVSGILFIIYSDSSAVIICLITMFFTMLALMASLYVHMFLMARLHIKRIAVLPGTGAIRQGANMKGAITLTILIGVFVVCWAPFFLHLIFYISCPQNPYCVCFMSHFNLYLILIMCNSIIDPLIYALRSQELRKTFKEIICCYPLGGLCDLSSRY

CN(C(=O)CCCOc1ccc2[nH]c(=O)ccc2c1)C1CCCCC1 [CILOSTAMIDE]
Not Active: IC50 (Melanocortin receptor 4) | IC50 [1] | IC50 [2] | IC50 [3] | IC50 [4] | IC50 (Cytochrome P450 2C19) | Ki (Cytochrome P450 2C19) | IC50 (Cytochrome P450 2D6) | Ki (Cytochrome P450 2D6)

CC(C)(Oc1ccc(C2CC2(Cl)Cl)cc1)C(=O)O (centres undefined) [CIPROFIBRATE]
Not Active: IC50 (Melanocortin receptor 4) | IC50 [1] | IC50 [2] | IC50 [3] | IC50 [4] | IC50 (Cytochrome P450 2C19) | Ki (Cytochrome P450 2C19) | IC50 (Cytochrome P450 2D6) | Ki (Cytochrome P450 2D6)

Nc1nc(Cl)nc2c1ncn2[C@H]1C[C@H](O)[C@@H](CO)O1 [CLADRIBINE]
Not Active: IC50 (Melanocortin receptor 4) | IC50 [1] | IC50 [2] | IC50 [3] | IC50 [4] | IC50 (Cytochrome P450 2C19) | Ki (Cytochrome P450 2C19) | IC50 (Cytochrome P450 2D6) | Ki (Cytochrome P450 2D6)

CC[C@H]1OC(=O)[C@H](C)[C@@H](O[C@H]2C[C@@](C)(OC)[C@@H](O)[C@H](C)O2)[C@H](C)[C@@H](O[C@@H]2O[C@H](C)C[C@H](N(C)C)[C@H]2O)[C@](C)(OC)C[C@@H](C)C(=O)[C@H](C)[C@@H](O)[C@]1(C)O [CLARITHROMYCIN]
Not Active: IC50 (Melanocortin receptor 4) | IC50 [1] | IC50 [2] | IC50 [3] | IC50 [4] | IC50 (Cytochrome P450 2C19) | Ki (Cytochrome P450 2C19) | IC50 (Cytochrome P450 2D6) | Ki (Cytochrome P450 2D6)

O=C(O)c1cc(=O)c2c(OCC(O)COc3cccc4oc(C(=O)O)cc(=O)c34)cccc2o1 [CROMOLYN]
Not Active: IC50 (Melanocortin receptor 4) | IC50 [1] | IC50 [2] | IC50 [3] | IC50 [4] | IC50 (Cytochrome P450 2C19) | Ki (Cytochrome P450 2C19) | IC50 (Cytochrome P450 2D6) | Ki (Cytochrome P450 2D6)

O=P1(N(CCCl)CCCl)NCCCO1 (centres undefined) [CYCLOPHOSPHAMIDE ANHYDROUS]
Not Active: IC50 (Melanocortin receptor 4) | IC50 [1] | IC50 [2] | IC50 [3] | IC50 [4] | IC50 (Cytochrome P450 2C19) | Ki (Cytochrome P450 2C19) | IC50 (Cytochrome P450 2D6) | Ki (Cytochrome P450 2D6)

CC(=O)O[C@]1(C(C)=O)CC[C@H]2[C@@H]3C=C(Cl)C4=CC(=O)[C@@H]5C[C@@H]5[C@]4(C)[C@H]3CC[C@@]21C [CYPROTERONE ACETATE]
Not Active: IC50 (Melanocortin receptor 4) | IC50 [1] | IC50 [2] | IC50 [3] | IC50 [4] | IC50 (Cytochrome P450 2C19) | Ki (Cytochrome P450 2C19) | IC50 (Cytochrome P450 2D6) | Ki (Cytochrome P450 2D6)

Nc1nc(N)nc(NC2CC2)n1 [CYROMAZINE]
Not Active: IC50 (Melanocortin receptor 4) | IC50 [1] | IC50 [2] | IC50 [3] | IC50 [4] | IC50 (Cytochrome P450 2C19) | Ki (Cytochrome P450 2C19) | IC50 (Cytochrome P450 2D6) | Ki (Cytochrome P450 2D6)

C#C[C@]1(O)CC[C@H]2[C@@H]3CCC4=Cc5oncc5C[C@]4(C)[C@H]3CC[C@@]21C [DANAZOL]
Not Active: IC50 (Melanocortin receptor 4) | IC50 [1] | IC50 [2] | IC50 [3] | IC50 [4] | IC50 (Cytochrome P450 2C19) | Ki (Cytochrome P450 2C19) | IC50 (Cytochrome P450 2D6) | Ki (Cytochrome P450 2D6)

CCN[C@@H](C)Cc1cccc(C(F)(F)F)c1 [DEXFENFLURAMINE]
Not Active: IC50 (Melanocortin receptor 4) | IC50 [1] | IC50 [2] | IC50 [3] | IC50 [4] | IC50 (Cytochrome P450 2C19) | Ki (Cytochrome P450 2C19) | IC50 (Cytochrome P450 2D6) | Ki (Cytochrome P450 2D6)

C[C@H](C(=O)O)c1cccc(C(=O)c2ccccc2)c1 [DEXKETOPROFEN]
Not Active: IC50 (Melanocortin receptor 4) | IC50 [1] | IC50 [2] | IC50 [3] | IC50 [4] | IC50 (Cytochrome P450 2C19) | Ki (Cytochrome P450 2C19) | IC50 (Cytochrome P450 2D6) | Ki (Cytochrome P450 2D6)

Cc1c(N(C)CS(=O)(=O)[O-])c(=O)n(-c2ccccc2)n1C.[Na+] [DIPYRONE SODIUM]
Not Active: IC50 (Melanocortin receptor 4) | IC50 [1] | IC50 [2] | IC50 [3] | IC50 [4] | IC50 (Cytochrome P450 2C19) | Ki (Cytochrome P450 2C19) | IC50 (Cytochrome P450 2D6) | Ki (Cytochrome P450 2D6)

CC(CCc1ccc(O)cc1)NCCc1ccc(O)c(O)c1 (centres undefined) [DOBUTAMINE]
Not Active: IC50 (Melanocortin receptor 4) | IC50 [1] | IC50 [2] | IC50 [3] | IC50 [4] | IC50 (Cytochrome P450 2C19) | Ki (Cytochrome P450 2C19) | IC50 (Cytochrome P450 2D6) | Ki (Cytochrome P450 2D6)

CCn1cc(C(=O)O)c(=O)c2cc(F)c(N3CCNCC3)nc21 [ENOXACIN]
Not Active: IC50 (Melanocortin receptor 4) | IC50 [1] | IC50 [2] | IC50 [3] | IC50 [4] | IC50 (Cytochrome P450 2C19) | Ki (Cytochrome P450 2C19) | IC50 (Cytochrome P450 2D6) | Ki (Cytochrome P450 2D6)

CCC(=O)O[C@H]1[C@H](O[C@@H]2[C@@H](C)[C@H](O[C@H]3C[C@@](C)(OC)[C@@H](O)[C@H](C)O3)[C@@H](C)C(=O)O[C@H](CC)[C@@](C)(O)[C@H](O)[C@@H](C)C(=O)[C@H](C)C[C@@]2(C)O)O[C@H](C)C[C@@H]1N(C)C [ERYTHROMYCIN PROPIONATE]
Not Active: IC50 (Melanocortin receptor 4) | IC50 [1] | IC50 [2] | IC50 [3] | IC50 [4] | IC50 (Cytochrome P450 2C19) | Ki (Cytochrome P450 2C19) | IC50 (Cytochrome P450 2D6) | Ki (Cytochrome P450 2D6)

C=C(CC)C(=O)c1ccc(OCC(=O)O)c(Cl)c1Cl [ETHACRYNIC ACID]
Not Active: IC50 (Melanocortin receptor 4) | IC50 [1] | IC50 [2] | IC50 [3] | IC50 [4] | IC50 (Cytochrome P450 2C19) | Ki (Cytochrome P450 2C19) | IC50 (Cytochrome P450 2D6) | Ki (Cytochrome P450 2D6)
